The subject of test [1] is MBP-luc line 171 heterozygous B6C3H mice. The test can be described thus: MBP-luci bioimaging, cuprizone model, demyelination phase, line 171 heterozygous. It counts as in vivo, mouse. The protocol: (§1) Mice were imaged at week 0 (baseline), week 3 and week 4 data normalized to the week 0 baseline.
As described above, mice were injected with 250 mg/kg D-luciferin through SC, IP or IV. After 5 (intravenous) or 8 (intraperitoneal or SC) minutes, mice were imaged using the IVIS 100 (Xenogen) for 16 minutes (60 seconds imaging and 60 seconds interval for 8 pictures at bin size 8). To quantify bioluminescence, identical circular regions of interest were positioned to encircle each mouse head region, and the imaging signal was quantitated as average radiance (photons/s/cm2/steridian) using […] software (version 2.5, Xenogen). The head region of interest was kept constant in area and positioning within all experiments. Data were normalized to bioluminescence at the initiation of treatment for each animal.
as §1

For another test, the system named is MBP-luci mice. It counts as in vivo, mouse. As to conditions: 0.2% cuprizone diet; for imaging signal drop: MBP 5k-luci line 171 (B6C3). As to the method:
To quantify bioluminescence, identical circular regions of interest were positioned to encircle each mouse head region, and the imaging signal was quantitated as average radiance (photons/s/cm2/steridian) using […] software (version 2.5, Xenogen).
As further proof, a MBP 5k-luci line 171 (B6C3 strain) was tested. […] There was significant imaging signal drop with cuprizone treatment (demyelination). For example, there is 43% signal drop from wk 0 to wk 4 and 74% signal drop from wk 0 to wk 6.
Three different MBP-luci lines (line 171 B6C3H het strain, line 121 C57BL/6 heterozygous strain and line 171 B6C3H homozygous strain) were compared by bioimaging and Luxol Fast Blue (LFB; myelin stain) histology. Mice were placed on a diet containing 0.2% cuprizone for 4 or 5 weeks. Imaging data were normalized to week 0 baseline measurements. At the end of each study, mouse brains were harvested and serial paraffin sections were stained for myelin with LFB. Average qualitative LFB score (0 to 5) was shown in the chart of FIG. 21. […] Line 171 B6C3H homozygous mice had the largest bioimaging signal reduction during cuprizone food feeding in the reference to their base line imaging before cuprizone food feeding. For example, after three weeks on the cuprizone diet, 171 B6C3H homozygous mice had 72% signal reduction (week 3 reference to week 0, p<0.05), while line 171 B6C3H heterozygous mice had 45% bioimaging signal reduction (reference to week 0, p<0.05). Line 121 C57 BL/6 heterozygous mice had the smallest reduction in luciferase signal (33% reduction at week 3 over week 0, p<0.05).

Read-outs that look alike come from different tables or passages of the source.

For `OCCOCCN1CCN(C2=Nc3ccccc3Sc3ccccc32)CC1` [QTP, Quetiapine], the “imaging signal vs vehicle control” value in test [1] (10 mg/kg oral, week 3 and week 4 on cuprizone diet, first study (FIG. 17)) is “significant increases”. For the same compound, the “cuprizone-induced bioimaging signal reduction” value in test [1] (10 mg/kg, week 3, second study (FIG. 18), vehicle 47% reduction, p=0.028) is recorded as 25%. The same compound had a bioimaging signal increase in test [1] (10 mg/kg, week 4, second study (FIG. 18), vehicle 25% reduction) of 6%. Further, the “transgene activity compared to the vehicle control group” value in test [1] (10 mg/kg, weeks 3 and 4, second study (FIG. 18)) is given as “significantly greater transgene activity”.
`O=C(NN=C1CCCCC1)C(=O)NN=C1CCCCC1` [cuprizone, bis-cyclohexanone oxaidihydrazone]: the values for the imaging signal drop in the test on MBP-luci mice (wk 0 to wk 4) and in the test with MBP-luci mice (wk 0 to wk 6) were 43% and 74%, respectively. In addition, in the test on MBP-luci mice (week 3 over week 0, line 121 C57 BL/6 heterozygous, p<0.05), the “reduction in luciferase signal” value stood at 33%. Further, the bioimaging signal reduction is recorded as 45% in the test with MBP-luci mice (week 3 vs week 0, line 171 B6C3H heterozygous, p<0.05) and 72% in the test on MBP-luci mice (week 3 vs week 0, line 171 B6C3H homozygous, p<0.05).

The values above are taken from patent US20160066550A1, “Animal Model Expressing Luciferase under Control of the Myelin Basic Protein Promoter (MBP-luci) and Use of the Model for Bioluminescence In Vivo Imaging” (SANOFI, priority 2009, published 2016).
